Measurements as given in patent US20070249620A1, “Urea Derivative” (priority 2004, published 2007).

Columns and labels:
mouse DGAT1 = molecular target: T1, mouse DGAT1 (Mus musculus, UniProt Q9Z2A7); assay: DGAT1 inhibitory effect test (microsome fraction, [14C]-oleoyl-CoA, triglyceride radioactivity by TLC); format: biochemical; conditions: 0.5 h; concentration of the test compound 0.1 μg/ml; mouse DGAT1 microsomes, 23° C., 30 minutes; read-out: Inhibitory ratio
T1 construct: made in house; host or cells: insect cells (High Five, Sf9, Sf21, etc.), baculovirus expression system (Invitrogen)
T1 sequence (Q9Z2A7 1-498): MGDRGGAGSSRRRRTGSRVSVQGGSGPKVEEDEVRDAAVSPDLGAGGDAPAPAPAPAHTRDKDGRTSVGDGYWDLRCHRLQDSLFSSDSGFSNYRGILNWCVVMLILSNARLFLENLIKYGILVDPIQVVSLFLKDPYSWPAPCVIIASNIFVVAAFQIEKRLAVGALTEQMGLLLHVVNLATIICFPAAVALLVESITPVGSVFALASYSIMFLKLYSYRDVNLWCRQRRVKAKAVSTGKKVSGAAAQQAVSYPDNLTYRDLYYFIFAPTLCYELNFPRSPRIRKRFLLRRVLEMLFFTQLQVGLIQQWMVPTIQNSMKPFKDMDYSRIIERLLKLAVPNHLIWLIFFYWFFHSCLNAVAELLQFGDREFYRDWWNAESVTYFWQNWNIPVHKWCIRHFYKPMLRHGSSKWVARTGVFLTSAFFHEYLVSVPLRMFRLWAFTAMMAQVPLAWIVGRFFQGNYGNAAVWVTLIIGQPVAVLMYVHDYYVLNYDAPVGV
Method in brief: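 Inhibition was scored from radiolabelled triglyceride separated by TLC, relative to vehicle and net of a 0-min background. The reaction ran for 30 min at room temperature (23 °C) in Tris-HCl pH 8.0 with MgCl2, BSA and Triton X-100. Substrates were 30 μM [14C]-oleoyl-CoA and 0.5 mM dioleoylglycerol, with mouse DGAT1 microsomes from baculovirus-infected insect cells as enzyme.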

Row | Compound | inhibition at 0.1 µg/mL (mouse DGAT1) [%] | melting point
1 | CCOc1cccc(NC(=O)Nc2ccc(N3CCN(C(=O)Nc4ccc(OCCO)cc4C(F)(F)F)CC3)cc2)c1 [Example 215, 4-{4-[3-(3-ethoxy-phenyl)-ureido]-phenyl}-piperazine-1-carboxylic acid [4-(2-hydroxy-ethoxy)-2-trifluoromethyl-phenyl]-amide] | ≥ 50 | 108 to 110 °C
2 | COc1ccc(C)cc1NC(=O)Nc1ccc(N2CCN(C(=O)Nc3ncccc3C)CC2)c(F)c1 [Example 312, 4-{2-fluoro-4-[3-(2-methoxy-5-methyl-phenyl)-ureido]-phenyl}-piperazine-1-carboxylic acid (3-methyl-pyridin-2-yl)-amide] | ≥ 50 | 188 to 190 °C
3 | COc1ccc(C)cc1NC(=O)Nc1ccc(N2CCCN(C(=O)Nc3c(C)cccc3C)CC2)cc1 [Example 201, 4-{4-[3-(2-methoxy-5-methyl-phenyl)-ureido]-phenyl}-perhydro-1,4-diazepine-1-carboxylic acid (2,6-dimethyl-phenyl)-amide] | ≥ 50 | > 240 °C (dec.)
4 | COc1ccc(C)cc1NC(=O)Nc1ccc(N2CCN(C(=O)Nc3c(C)cccc3N)CC2)cc1 [Example 167, 4-{4-[3-(2-methoxy-5-methyl-phenyl)-ureido]-phenyl}-piperazine-1-carboxylic acid (2-amino-6-methyl-phenyl)-amide] | ≥ 50 | 198 to 199 °C
5 | COc1ccc(C)cc1NC(=O)Nc1ccc(N2CCCN(C(=O)Nc3ccc(OCCO)cc3C(F)(F)F)CC2)cc1 [Example 218, 4-{4-[3-(2-methoxy-5-methyl-phenyl)-ureido]-phenyl}-perhydro-1,4-diazepine-1-carboxylic acid [4-(2-hydroxy-ethoxy)-2-trifluoromethyl-phenyl]-amide] | ≥ 50 | 118 to 120 °C
6 | CCOc1ccc(F)cc1NC(=O)Nc1ccc(N2CCN(C(=O)Nc3ccccc3C)CC2)cc1 [Example 90, 4-{4-[3-(2-ethoxy-5-fluoro-phenyl)-ureido]-phenyl}-piperazine-1-carboxylic acid o-tolylamide] | ≥ 50 | 186 to 187 °C
7 | COc1ccc(C)cc1NC(=O)Nc1ccc(N2CCN(C(=O)C(O)c3ccccc3Cl)CC2)cc1 (stereo not drawn) [Example 378, 1-(4-{4-[2-(2-chloro-phenyl)-2-hydroxy-acetyl]-piperazin-1-yl}-phenyl)-3-(2-methoxy-5-methyl-phenyl)-urea] | ≥ 50 | 118 to 120 °C
8 | COc1ccc(C)cc1NC(=O)Nc1ccc2c(c1)CCN(C(=O)Oc1ccc(C(=O)O)cc1Cl)C2 [Example 397, 6-[3-(2-methoxy-5-methyl-phenyl)-ureido]-3,4-dihydro-1H-isoquinoline-2-carboxylic acid 4-carboxy-2-chloro-phenyl ester] | ≥ 50 | 196 to 198 °C
9 | COc1cc(NC(=O)Nc2ccc(N3CCN(C(=O)Nc4cc(OCCO)ccc4Cl)CC3)cc2)cc(OC)c1 [Example 234, 4-{4-[3-(3,5-dimethoxy-phenyl)-ureido]-phenyl}-piperazine-1-carboxylic acid [2-chloro-5-(2-hydroxy-ethoxy)-phenyl]-amide] | ≥ 50 | 191 to 192 °C
10 | O=C(Nc1ccc(N2CCN(C(=O)C(O)c3ccc(O)cc3Cl)CC2)nc1)Nc1ccccc1F (stereo not drawn) [Example 379, 1-(6-{4-[2-(2-chloro-4-hydroxy-phenyl)-2-hydroxy-acetyl]-piperazin-1-yl}-pyridin-3-yl)-3-(2-fluoro-phenyl)-urea] | ≥ 50 | 133 to 135 °C
11 | COc1ccc(C)cc1NC(=O)Nc1ccc(N2CCN(C(=O)Nc3ccc(F)cc3C(F)(F)F)CC2)cc1 [Example 87, 4-{4-[3-(2-methoxy-5-methyl-phenyl)-ureido]-phenyl}-piperazine-1-carboxylic acid (4-fluoro-2-trifluoromethyl-phenyl)-amide] | ≥ 50 | 172 to 174 °C
12 | COc1ccc(C)cc1NC(=O)Nc1ccc(C2CCN(C(=O)Nc3ccc(OCCO)cc3Cl)CC2)cc1 [Example 257, 4-{4-[3-(2-methoxy-5-methyl-phenyl)-ureido]-phenyl}-piperidine-1-carboxylic acid [2-chloro-4-(2-hydroxy-ethoxy)-phenyl]-amide] | ≥ 50 | 134 to 137 °C
13 | CCOc1ccc(C)cc1NC(=O)Nc1ccc(N2CCN(C(=O)Nc3c(F)cccc3C(F)(F)F)CC2)cc1 [Example 119, 4-{4-[3-(2-ethoxy-5-methyl-phenyl)-ureido]-phenyl}-piperazine-1-carboxylic acid (2-fluoro-6-trifluoromethyl-phenyl)-amide] | ≥ 50 | 144 to 146 °C
14 | CCOc1ccc(F)cc1NC(=O)Nc1ccc(N2CCN(C(=O)Nc3c(F)cccc3C(F)(F)F)CC2)cc1 [Example 93, 4-{4-[3-(2-ethoxy-5-fluoro-phenyl)-ureido]-phenyl}-piperazine-1-carboxylic acid (2-fluoro-6-trifluoromethyl-phenyl)-amide] | ≥ 50 | 153 to 155 °C
15 | O=C(Nc1ccc(C2=CCN(C(=O)Nc3ccc(OCCO)cc3Cl)CC2)cc1)Nc1ccccc1F [Example 260, 4-{4-[3-(2-fluoro-phenyl)-ureido]-phenyl}-3,6-dihydro-2H-pyridine-1-carboxylic acid [2-chloro-4-(2-hydroxy-ethoxy)-phenyl]-amide] | ≥ 50 | 173 to 178 °C
16 | COc1ccc(C)cc1NC(=O)Nc1ccc(N2CCN(C(=O)Nc3c(C)cccc3C)CC2)nc1 [Example 138, 4-{5-[3-(2-methoxy-5-methyl-phenyl)-ureido]-pyridin-2-yl}-piperazine-1-carboxylic acid (2,6-dimethyl-phenyl)-amide] | ≥ 50 | 221 to 223 °C

Other lines, results leading:

Row | inhibition at 0.1 µg/mL (mouse DGAT1) [%] | melting point | Compound
17 | ≥ 50 | 166 to 168 °C | CCOc1ccccc1NC(=O)Nc1ccc(N2CCN(C(=O)Nc3ccc(OC)cc3C)CC2)nc1 [Example 145, 4-{5-[3-(2-ethoxy-phenyl)-ureido]-pyridin-2-yl}-piperazine-1-carboxylic acid (4-methoxy-2-methyl-phenyl)-amide]
18 | ≥ 50 | 226 to 228 °C | COc1ccc(F)cc1NC(=O)Nc1ccc(N2CCN(C(=O)Nc3c(C)cccc3C)CC2)nc1 [Example 149, 4-{5-[3-(5-fluoro-2-methoxy-phenyl)-ureido]-pyridin-2-yl}-piperazine-1-carboxylic acid (2,6-dimethyl-phenyl)-amide]
19 | ≥ 50 | 215 to 217 °C | CCOc1ccccc1NC(=O)Nc1ccc(N2CCN(C(=O)Nc3c(C)cccc3Cl)CC2)cc1 [Example 82, 4-{4-[3-(2-ethoxy-phenyl)-ureido]-phenyl}-piperazine-1-carboxylic acid (2-chloro-6-methyl-phenyl)-amide]
20 | ≥ 50 | 134 to 136 °C | COc1ccccc1NC(=O)Nc1ccc(N2CCN(C(=O)Nc3ccc(OCCO)cc3Cl)CC2)cc1 [Example 251, 4-{4-[3-(2-methoxy-phenyl)-ureido]-phenyl}-piperazine-1-carboxylic acid [2-chloro-4-(2-hydroxy-ethoxy)-phenyl]-amide]
21 | ≥ 50 | 134 to 136 °C | COc1ccc(C)cc1NC(=O)Nc1ccc(N2CCN(C(=O)Nc3ccc(OCC(O)CO)cc3Cl)CC2)cc1 (stereo not drawn) [Example 277, 4-{4-[3-(2-methoxy-5-methyl-phenyl)-ureido]-phenyl}-piperazine-1-carboxylic acid [2-chloro-4-(2,3-dihydroxy-propoxy)-phenyl]-amide]
22 | ≥ 50 | 196 to 197 °C | CCOc1cccc(NC(=O)Nc2ccc(N3CCN(C(=O)Nc4cc(OCCO)ccc4Cl)CC3)cc2)c1 [Example 233, 4-{4-[3-(3-ethoxy-phenyl)-ureido]-phenyl}-piperazine-1-carboxylic acid [2-chloro-5-(2-hydroxy-ethoxy)-phenyl]-amide]
23 | ≥ 50 | 216 to 218 °C | COc1ccc(Cl)cc1NC(=O)Nc1ccc(N2CCN(C(=O)Nc3c(C)cccc3C)CC2)cc1 [Example 114, 4-{4-[3-(5-chloro-2-methoxy-phenyl)-ureido]-phenyl}-piperazine-1-carboxylic acid (2,6-dimethyl-phenyl)-amide]
24 | ≥ 50 | 107 to 111 °C | COc1ccccc1NC(=O)Nc1ccc2c(c1)CCN(C(=O)Nc1ccc(OCC(O)CO)cc1Cl)C2 (stereo not drawn) [Example 284, 6-[3-(2-methoxy-phenyl)-ureido]-3,4-dihydro-1H-isoquinoline-2-carboxylic acid [2-chloro-4-(2,3-dihydroxy-propoxy)-phenyl]-amide]
